Data from US8415358B2, “Pyrazine derivatives and their use as potassium channel modulators” (Neurosearch A/S, priority 2007, dated 2013).

Tests used:
hSK3 channels = target: T1, hSK3 channels (Homo sapiens, UniProt Q9UGI6); assay: Whole-cell patch-clamp recording of ionic current through SK channels (subtype 3) in HEK293 cells expressing hSK3; assay type: cell-based; settings: Stimulating Concentration required for increasing the baseline current by 100%, current at -75 mV, free Ca2+ 0.3-0.4 μM, room temperature
T1 construct: expressed in transfected cells; host or cells: HEK293
Protocol: The ionic current through small-conductance Ca^2+-activated K^+ channels (SK channels, subtype 3) is recorded using the whole-cell configuration of the patch-clamp technique.
HEK293 tissue culture cells expressing hSK3 channels were grown in DMEM (Dulbecco's Modified Eagle Medium) supplemented with 10% FCS (foetal calf serum) at 37° C. in 5% CO2. At 60-80% confluency, cells were harvested by trypsin treatment and seeded on cover slips.
Experiments are carried out on one of several patch-clamp set-ups. Cells plated on coverslips are placed in a 15 μl perfusion chamber (flowrate ˜1 ml/min) mounted on an IMT-2 microscope. The microscopes are placed on vibration-free tables in grounded Faraday cages. All experiments are performed at room temperature (20-22° C.). EPC-9 patch-clamp amplifiers (HEKA-electronics, Lambrect, Germany) are connected to Macintosh computers via ITC16 interfaces. Data are stored directly on the hard-disk and analysed by IGOR software (Wavemetrics, Lake Oswega, Oreg., USA).
The whole-cell configuration of the patch-clamp technique is applied. In short: The tip of a borosilicate pipette (resistance 2-4 MΩ) is gently placed on the cell membrane using remote control systems. Light suction results in the formation of a giga seal (pipette resistance increases to more than 1 GΩ) and the cell membrane underneath the pipette is then ruptured by more powerful suction. Cell capacitance is electronically compensated and the resistance between the pipette and the cell interior (the series resistance, Rs) is measured and compensated for. […]
The intracellular (pipette) solution contained: 154 mM KCl, 10 mM HEPES, 10 mM EGTA. Concentrations of CaCl2 and MgCl2 needed to obtain the desired free concentrations of Ca^2+ (0.3-0.4 μM, Mg^2+ always 1 mM) were calculated by EqCal software (Cambridge, UK) and added.
After establishment of the whole-cell configuration, voltage-ramps (normally −80 to +80 mV) are applied to the cell every 5 seconds from a holding potential of 0 mV. […] Active compounds are quantified by calculating the change in baseline current at −75 mV. […]

melting point [°C] | SC100 (hSK3 channels) [µM] | Compound
155 to 157 | – | Clc1ccc(Nc2cncc(-n3cccn3)n2)cc1 [Compound 3, (4-Chloro-phenyl)-(6-pyrazol-1-yl-pyrazin-2-yl)-amine]
249 to 252 | – | Clc1ccc(Nc2cncc(-n3cc4ccccc4n3)n2)cc1 [Compound 3.1, (4-Chloro-phenyl)-(6-indazol-2-yl-pyrazin-2-yl)-amine]
204 to 207 | – | Clc1ccc(Nc2cncc(-n3ncc4ccccc43)n2)cc1 [Compound 3.2, (4-Chloro-phenyl)-(6-indazol-1-yl-pyrazin-2-yl)-amine]
157 to 158.9 | 0.25 | Cc1cc(C)n(-c2cncc(Nc3ccc(Cl)cc3)n2)n1 [Compound 4, (4-Chloro-phenyl)-[6-(3,5-dimethyl-pyrazol-1-yl)-pyrazin-2-yl]-amine]

Further lines, the compound ahead of its results:

Compound | melting point [°C] | SC100 (hSK3 channels) [µM]
Cc1cccc(-c2cncc(Nc3ccc(Cl)cc3)n2)n1 [Compound 8.1, (4-Chloro-phenyl)-[6-(6-methyl-pyridin-2-yl)-pyrazin-2-yl]-amine] | 186 to 188 | –
Clc1ccc(Nc2cncc(-c3nccs3)n2)cc1 [Compound 8.4, (4-Chloro-phenyl)-(6-thiazol-2-yl-pyrazin-2-yl)-amine] | – | 0.30
Cc1cc(C)n(-c2cnc(CN(C)C)c(Nc3ccc(Cl)cc3)n2)n1 [Compound 14.1, (4-Chloro-phenyl)-[3-dimethylaminomethyl-6-(3,5-dimethyl-pyrazol-1-yl)-pyrazin-2-yl]-amine] | 112 to 114 | –
COCc1ncc(-n2nc(C)cc2C)nc1Nc1ccc(Cl)cc1 [Compound 16.1, (4-Chloro-phenyl)-[6-(3,5-dimethyl-pyrazol-1-yl)-3-methoxymethyl-pyrazin-2-yl]-amine] | 105 to 108 | –
COCc1ncc(Nc2ccc(Cl)cc2)nc1-n1nc(C)cc1C [Compound 17.1] | 147 to 151 | –
Cc1cc(C)n(-c2cnc(/C=N/O)c(Nc3ccc(Cl)cc3)n2)n1 [Compound 20.1, 3-(4-Chloro-phenylamino)-5-(3,5-dimethyl-pyrazol-1-yl) -pyrazine-2-carbaldehyde oxime] | 228 to 231 | 0.075
Cc1cc(C)n(-c2cnc(CN)c(Nc3ccc(Cl)cc3)n2)n1 [Compound 21.1, [3-Aminomethyl-6-(3,5-dimethyl-pyrazol-1-yl)-pyrazin-2-yl]-(4-chloro-phenyl)-amine] | 156 to 160 | –
CC(=O)NCc1ncc(-n2nc(C)cc2C)nc1Nc1ccc(Cl)cc1 [Compound 22.1, N-[3-(4-Chloro-phenylamino)-5-(3,5-dimethyl-pyrazol-1-yl)-pyrazin-2-ylmethyl]-acetamide] | 228 to 230 | –
CCNc1ncc(Nc2ccc(Cl)cc2)nc1-n1nc(C)cc1C [Compound 27.2, 5-(4-Chloro-phenylamino)-3-(3,5-dimethyl-pyrazol-1-yl)-2-ethylamino-pyrazine] | 122 to 124 | –
